Values after ≈ are worked out from the molar mass of the structure shown. Values joined by “and” are separate entries in the source; they are usually repeats but may differ in a detail not shown here. Identical values can stand only once. Blank lines part the entries; values can stand above or below the compound they belong to.
Experiments:
Test in all cases: ≥ marks a high value that may be exact or a test limit, other limits are often not marked, values filed in µg/mL are converted to µM
[1] = system: Escherichia coli ATCC 8739
[2] = system: Bacillus subtilis ATCC 6633
[3] = system: Staphylococcus aureus ATCC 6538
[4] = system: Staphylococcus aureus ATCC 43300
[5] = system: Candida albicans ATCC 90028
[6] = system: Pseudomonas aeruginosa ATCC 27853
[7] = system: Klebsiella pneumoniae ATCC 700603
[8] = system: Cryptococcus neoformans ATCC 208821
[9] = system: Escherichia coli ATCC 25922
[10] = system: Acinetobacter baumannii ATCC 19606
[11] = system: Streptococcus gordonii Challis DL1
[12] = system: Streptococcus mitis ATCC 903
[13] = system: Staphylococcus aureus
[14] = system: Streptococcus mutans UA159
[15] = system: Streptococcus sanguinis NY101
[16] = system: Pseudomonas aeruginosa PAK
[17] = system: Staphylococcus aureus ATCC 25923
[18] = system: Salmonella typhimurium ATCC 7731
[19] = system: Staphylococcus aureus ATCC 29213
[20] = system: Salmonella enterica subsp. enterica serovar Typhimurium ATCC 14028
[21] = system: Staphylococcus epidermidis ATCC 12228
[22] = system: Escherichia coli UB1005
[23] = system: Bacillus subtilis CMCC 63501
[24] = system: Salmonella enterica subsp. enterica serovar Typhimurium C77-31
[25] = system: Candida tropicalis CGMCC 2.1975
[26] = system: Salmonella enterica subsp. enterica serovar Pullorum ATCC 7913
[27] = system: Escherichia coli 078
[28] = system: Escherichia coli K99
[29] = system: Escherichia coli K88
[30] = system: Candida parapsilosis CGMCC 2.3989

MIC [1]: 12.5 µM (≈ 47.9 µg/mL) | MIC [2]: 6.3 µM (≈ 24.2 µg/mL) | MIC [3]: 3.1 µM (≈ 11.9 µg/mL) | MIC [4]: 25 µM (≈ 95.9 µg/mL) | MIC [5]: ≥ 100 µM
SMILES: CC[C@H](C)[C@H](NC(=O)CN)C(=O)N[C@@H](Cc1ccccc1)C(=O)N[C@@H](CO)C(=O)N[C@@H](CC(C)C)C(=O)N[C@H](C(=O)N[C@@H](CCCCN)C(=O)NCC(=O)N[C@@H](C)C(=O)N[C@@H](C)C(=O)N[C@@H](CCCCN)C(=O)N[C@@H](CC(C)C)C(=O)N[C@H](C(=O)N[C@H](C(=O)N[C@@H](CCCCN)C(=O)N[C@H](C(=O)N[C@H](C(=O)N[C@@H](C)C(=O)N[C@@H](CCCCN)C(=O)N[C@@H](CCC(=O)O)C(=O)N[C@@H](C)C(=O)NCC(=O)N[C@@H](CCCCN)C(=O)N[C@H](C(=O)NCC(=O)N[C@@H](CC(C)C)C(=O)N[C@@H](CCC(=O)O)C(=O)N[C@@H](CC(C)C)C(=O)N[C@@H](CCSC)C(=O)N[C@@H](C)C(=O)N[C@H]1CSSC[C@@H](C(=O)O)NC(=O)[C@H](CCC(N)=O)NC(=O)[C@H](CC(N)=O)NC(=O)[C@H]([C@@H](C)O)NC(=O)[C@H](C(C)C)NC(=O)[C@H](CCCCN)NC1=O)[C@@H](C)O)C(C)C)[C@@H](C)O)[C@@H](C)O)[C@@H](C)CC)[C@@H](C)CC [GIFSLIKGAAKLITKTVAKEAGKTGLELMACKVTNQC]

MIC [6]: > 18.3 µM | MIC [7]: > 18.3 µM | MIC [4]: 18.3 µM (≈ 32 µg/mL) | MIC [8]: 4.59 µM (≈ 8 µg/mL) | MIC [5]: 18.3 µM (≈ 32 µg/mL) | MIC [9]: > 18.3 µM | MIC [10]: > 18.3 µM
SMILES: NC(=O)CC[C@H](NC(=O)[C@H](Cc1cnc[nH]1)NC(=O)[C@H](CO)NC(=O)[C@H](CCCN=C(N)N)NC(=O)[C@H](Cc1ccccc1)NC(=O)[C@H](Cc1cnc[nH]1)NC(=O)[C@H](CCCN=C(N)N)NC(=O)[C@H](Cc1cnc[nH]1)NC(=O)[C@H](Cc1cnc[nH]1)NC(=O)[C@@H](N)CO)C(=O)N[C@@H](CS)C(=O)N[C@@H](CCCN=C(N)N)C(=O)N[C@@H](CCCN=C(N)N)C(=O)O [SHHRHFRSHQCRR]

MIC [11]: 2.54 µM (≈ 8 µg/mL) | MIC [12]: 19.8 µM (≈ 62.5 µg/mL) | MIC [13]: 10.1 µM (≈ 32 µg/mL) | MIC [14]: 5.07 µM (≈ 16 µg/mL) | MIC [15]: 10.1 µM (≈ 32 µg/mL) | MIC [16]: 10.1 µM (≈ 32 µg/mL)
SMILES: CC[C@H](C)[C@H](NC(=O)[C@H](Cc1ccccc1)NC(=O)[C@H](Cc1cnc[nH]1)NC(=O)[C@H](CCCCN)NC(=O)[C@@H](NC(=O)[C@@H](N)Cc1ccccc1)[C@@H](C)CC)C(=O)N[C@@H](Cc1cnc[nH]1)C(=O)N[C@@H](CCCN=C(N)N)C(=O)N[C@@H](Cc1ccccc1)C(=O)N[C@@H](CO)C(=O)NCC(=O)NCC(=O)N[C@@H](CC(C)C)C(=O)N[C@@H](CCC(N)=O)C(=O)N[C@@H](CC(C)C)C(=O)N[C@@H](CC(C)C)C(=O)N[C@@H](CCCCN)C(=O)N[C@@H](CCC(N)=O)C(=O)N[C@@H](CC(C)C)C(=O)N[C@@H](CC(C)C)C(=O)N[C@@H](CCCCN)C(=O)N[C@@H](CC(C)C)C(=O)N[C@@H](CC(C)C)C(=O)N[C@@H](CCCCN)C(=O)N[C@@H](CCC(N)=O)C(=O)N[C@@H](Cc1ccccc1)C(N)=O [FIKHFIHRFSGGLQLLKQLLKLLKQF]

MIC [1]: 14.6 µM (≈ 32 µg/mL)
SMILES: CC[C@H](C)[C@H](NC(=O)[C@H](CCCCN)NC(=O)[C@H](CC(=O)O)NC(=O)[C@H](CC(C)C)NC(=O)[C@@H](NC(=O)[C@H](CCCN=C(N)N)NC(=O)[C@H](CC(C)C)NC(=O)[C@H](CC(C)C)NC(=O)[C@H](CC(C)C)NC(=O)[C@H](CCCCN)NC(=O)[C@H](CC(N)=O)NC(=O)[C@@H](NC(=O)[C@H](CCCCN)NC(=O)[C@H](CCCCN)NC(=O)[C@@H]1CCCN1)[C@@H](C)CC)[C@@H](C)CC)C(=O)N[C@@H](C)C(=O)N[C@@H](CO)C(=O)N[C@@H](Cc1ccccc1)C(=O)N[C@@H](CO)C(=O)O [PKKINKLLLRILDKIASFS]

MIC [1]: 30.2 µM (≈ 64 µg/mL) | MIC [17]: 121 µM (≈ 256 µg/mL)
SMILES: CC[C@H](C)[C@H](NC(=O)[C@H](C)NC(=O)[C@@H](NC(=O)[C@H](CCCCN)NC(=O)[C@H](CCCCN)NC(=O)[C@H](Cc1cnc[nH]1)NC(=O)[C@@H](NC(=O)[C@H](CCCCN)NC(=O)[C@H](CS)NC(=O)[C@@H](NC(=O)[C@@H](NC(=O)[C@H](CCCN=C(N)N)NC(=O)[C@@H](NC(=O)[C@H](C)NC(=O)[C@H](CC(C)C)NC(=O)[C@H](CCCCN)NC(=O)[C@@H]1CCCN1)[C@@H](C)CC)[C@@H](C)CC)[C@@H](C)O)[C@@H](C)CC)C(C)C)C(=O)N[C@@H](CO)C(=O)N[C@H](C(=O)O)C(C)C [PKLAIRITCKIHKKVAISV]

MIC [6]: 4 µM and > 2 µM | MIC [18]: 2 µM (≈ 5.48 µg/mL) | MIC [19]: 4 µM (≈ 11 µg/mL) | MIC [20]: 4 µM (≈ 11 µg/mL) | MIC [21]: 4 µM (≈ 11 µg/mL) | MIC [22]: 4 µM (≈ 11 µg/mL) | MIC [23]: 4 µM (≈ 11 µg/mL)
SMILES: CC[C@H](C)[C@H](NC(=O)[C@H](C)NC(=O)[C@H](CCCCN)NC(=O)[C@H](Cc1ccc(O)cc1)NC(=O)[C@H](CC(C)C)NC(=O)[C@H](C)NC(=O)[C@@H](NC(=O)[C@@H](NC(=O)[C@H](CC(N)=O)NC(=O)[C@@H](NC(=O)[C@H](C)NC(=O)[C@@H](NC(=O)[C@@H]1CCCN1C(=O)[C@@H](NC(=O)[C@H](CC(C)C)NC(=O)[C@@H]1CCCN1C(=O)[C@H](Cc1c[nH]c2ccccc12)NC(=O)[C@H](Cc1ccccc1)NC(=O)[C@H](CCCN=C(N)N)NC(=O)[C@@H](N)CCCCN)C(C)C)C(C)C)[C@@H](C)CC)[C@@H](C)O)C(C)C)C(=O)N[C@@H](CCCN=C(N)N)C(=O)N[C@@H](CCCN=C(N)N)C(=O)N[C@@H](CCCCN)C(N)=O [KRFWPLVPVAINTVALYKAIRRK]

MIC [1]: ≥ 60.7 µM
SMILES: CC[C@H](C)[C@H](NC(=O)[C@H](CCCCN)NC(=O)[C@H](CCCCN)NC(=O)[C@H](CCCCN)NC(=O)[C@@H](NC(=O)[C@H](CCCN=C(N)N)NC(=O)[C@@H](NC(=O)[C@H](CC(C)C)NC(=O)[C@H](CC(C)C)NC(=O)[C@H](CCCCN)NC(=O)[C@H](CCSC)NC(=O)[C@@H]1CCCN1)C(C)C)C(C)C)C(=O)NCC(=O)N[C@@H](CC(=O)O)C(=O)N[C@@H](C)C(=O)N[C@@H](CC(C)C)C(=O)N[C@@H](CCC(=O)O)C(=O)N[C@@H](CC(C)C)C(=O)NCC(=O)O [PMKLLVRVKKKIGDALELG]

MIC [24]: 4 µM (≈ 5.54 µg/mL) | MIC [6]: 8 µM (≈ 11.1 µg/mL) | MIC [25]: 4 µM (≈ 5.54 µg/mL) | MIC [26]: 4 µM (≈ 5.54 µg/mL) | MIC [27]: 4 µM (≈ 5.54 µg/mL) | MIC [28]: 2 µM (≈ 2.77 µg/mL) | MIC [20]: 4 µM (≈ 5.54 µg/mL) | MIC [21]: 2 µM (≈ 2.77 µg/mL) | MIC [22]: 4 µM (≈ 5.54 µg/mL) | MIC [29]: 4 µM (≈ 5.54 µg/mL) | MIC [4]: 2 µM (≈ 2.77 µg/mL) | MIC [30]: 4 µM (≈ 5.54 µg/mL) | MIC [17]: 2 µM (≈ 2.77 µg/mL)
SMILES: CC[C@H](C)[C@H](NC(=O)[C@H](CCCN=C(N)N)NC(=O)[C@H](C)NC(=O)[C@H](C)N)C(=O)N[C@H](C(=O)N[C@@H](CC(C)C)C(=O)N[C@@H](CCCN=C(N)N)C(=O)N[C@@H](CC(C)C)C(=O)N[C@@H](CCCN=C(N)N)C(=O)N[C@@H](Cc1ccccc1)C(=O)N[C@@H](CCCN=C(N)N)C(N)=O)[C@@H](C)CC [AARIILRLRFR]

— DBAASP
